Source: patent US20040010026A1, “(R) 2-(4-amidinophenylaminomethyl)-1-methyl-5-[1-(carboxymethylamino)-1 (pyrrolidinocarbonyl)-ethyl]-benzimidazole, the monohydrochloride thereof, preparation thereof and the use as pharmaceutical composition” (Boehringer Ingelheim Pharma GmbH & Co. KG, priority 2002, published 2004)
Structures can show the parent of a compound that is named as a salt.

Tests used:
[1] = Solid stress stability of the free base and of the corresponding monohydrochloride; assay type: physicochemical; details: for decomposition under temperature and relative humidity stress / decomposition under temperature stress / decomposition under light stress: solid, open glass dish; for decomposition under temperature and relative humidity stress: 70° C., approx. 90% relative humidity, 3 days; for decomposition under temperature stress: 105° C., 24 hours; for decomposition under light stress: Suntester xenon lamp, 22-24 hours
Excerpt: Solid stress stability data of the free base and of the corresponding monohydrochloride

[2] = Solubility in physiologically acceptable solvents; assay type: physicochemical

Structure (SMILES): Cn1c(CNc2ccc(C(=N)N)cc2)nc2cc([C@@](C)(NCC(=O)O)C(=O)N3CCCC3)ccc21 [Free base, (R)-2-(4-Amidinophenylaminomethyl)-1-methyl-5-[1-(carboxymethylamino)-1-(pyrrolidinocarbonyl)-ethyl]-benzimidazole]
- decomposition under temperature and relative humidity stress [1]: approx. 4%
- decomposition under temperature stress [1]: approx. 1%
- decomposition under light stress [1]: approx. 1%

Structure (SMILES): Cn1c(CNc2ccc(C(=N)N)cc2)nc2cc([C@@](C)(NCC(=O)O)C(=O)N3CCCC3)ccc21 [monohydrochloride, (R)-2-(4-Amidinophenylaminomethyl)-1-methyl-5-[1-(carboxymethylamino)-1-(pyrrolidinocarbonyl)-ethyl]-benzimidazole-monohydrochloride]
- stability (general statement) [1]: high degree of stability
- decomposition under temperature and relative humidity stress [1]: no decompo-
- decomposition under temperature stress [1]: no decompo-
- decomposition under light stress [1]: (<1%)
- solubility [2]: dissolves very easily
